# Values of other authors, collected in PMC11320730, “5-Methoxy-2-aminoindane Reverses Diet-Induced Obesity and Improves Metabolic Parameters in Mice: A Potential New Class of Antiobesity Therapeutics” (ACS Pharmacology & Translational Science, 2024).
# Assays:
# [1] = test system: lean mice, DIO mice, ob/ob mice and melanocortin-receptor 4 knockout mice; design: method as in PMID 35953488; conditions: ob/ob and melanocortin-receptor 4 knockout mice; cited from earlier work
# [2] = test system: adult female participants with anorexia nervosa; conditions: single 25 mg dose with psychological support, 10 adult female participants; cited from earlier work
# [3] = test system: rats fed a cafeteria diet; design: method as in PMID 35664477; conditions: cited from earlier work
compound,measurement,setting,value
CN(C)CCc1c[nH]c2cccc(OP(=O)(O)O)c12 [psilocybin],body weight,[1],no impact
same,food intake,[1],no impact
same,safety and tolerability (adverse events),[2],no clinically significant adverse events observed
same,weight loss,[3]; at the given doses,no effect
same,weight gain,[3],reduced
